Data as given in patent US7855309B2, “Pesticide benzyloxy- and phenetyl-substituted phenyl-amidine derivatives” (Bayer CropScience AG, priority 2005, dated 2010).
Where two headings read alike, the source gives them in different places.

Tests used:
[1] = logP by HPLC on reversed-phase column (EEC Directive 79/831 Annex V.A8); assay type: physicochemical; conditions: for chromatographic logP: reversed-phase HPLC column (C18)
Protocol: Temperature: 40° C.; Mobile phases: 0.1% aqueous formic acid and acetonitrile; linear gradient from 10% acetonitrile to 90% acetonitrile.
Calibration was carried out using unbranched alkan-2-ones (comprising 3 to 16 carbon atoms) with known logP values (determination of the logP values by the retention times using linear interpolation between two successive alkanones).

Aedes aegypti larvae = experiment: In vivo protective test on Aedes aegypti (AEDSAE U)
Protocol: In Vivo Protective Test on Aedes Aegypti (AEDSAE U)
Solvent: 1% N-methylpyrrolidone (NMP)
• 1% diacetonealcohol Dye: brillantsulfoflavin for staining water
To produce a suitable preparation of the active compound, the active compound is mixed with the stated amount of solvent, and the concentrate is diluted with staining water to the desired concentration.
Aedes aegypti larvae are pipetted with a preparation of active ingredient of the desired concentration.
After the specified period of time, mortality in % is determined. 100% means that all larvae have been killed, a 0% means that none of the larvae have been killed.

Myzus persicae = experiment: In vivo protective test on Myzus persicae (MYZUPE); conditions: Chinese cabbage leaf-disks, all instars, spray
Protocol: In Vivo Protective Test on Myzus persicae (MYZUPE)
(§1) Solvent: 78 parts by weight acetone
• 1.5 parts by weight dimethylformamide Dye: 0.5 parts by weight alkylarylpolyglcolether
(§2) To produce a suitable preparation of active compound, 1 part by weight of active compound is mixed with the stated amount of solvent and emulsifier, and the concentrate is diluted with emulsifier-containing water to the desired concentration.
Chinese cabbage (Brassica pekinesis) leaf-disks infected with all instars of the green peach aphid (Myzus persicae), are sprayed with a preparation of the active ingredient at the desired concentration.
After the specified period of time, mortality in % is determined. 100% means that all aphids have been killed; 0% means that none of the aphids have been killed.

Heliothis viresens = experiment: In vivo protective test on Heliothis virescens (HELIVI); design: species or system Heliotis virescens; conditions: soybean leaf sections, eggs
Protocol: In Vivo Protective Test on Heliothis viresens (HELIVI)
as §1
• 1.5 parts by weight dimethylformamide Wetting agent: 0.5 parts by weight alkylarylpolyglcolether
as §2
Soybean (Glycine max.) leaf sections are sprayed with a preparation of the active ingredient of the desired concentration. Once dry, the leaf sections are infested with eggs of cotton bollworm (Heliotis virescens).
After the specified period of time, mortality in % is determined. 100% means that all eggs have been killed and 0% means that none of the eggs have been killed.

[2] = HPLC, C18, 40° C., 0.1% aqueous formic acid and acetonitrile

Compound | log P [1, 2] | activity (mortality) (Aedes aegypti larvae) | activity (mortality) (Myzus persicae) | activity (mortality) (Heliothis viresens) | chromatographic logP ([1]; pH 2.3, read-out: log P (pH 2.3)) | chromatographic logP ([1]; HPLC, C18, 40° C., 0.1% aqueous formic acid and acetonitrile, read-out: log P)
CCN(C)C=Nc1cc(C)c(OCc2ccc(Cl)cc2)cc1C [Compound 1] | 2.14 | good activity | – | – | – | –
CCN(C)C=Nc1cc(C)c(OCc2c(Cl)cccc2Cl)cc1C [Compound 3] | 2.05 | good activity | good activity | – | – | –
CCN(C)C=Nc1cc(C)c(OC(C)c2c(Cl)cccc2Cl)cc1C (stereo not drawn) [Compound 4] | 2.52 | good activity | – | – | – | –
CCN(C)C=Nc1cc(C)c(OC(C)c2ccc(F)cc2)cc1C (stereo not drawn) [Compound 6] | 2.08 | good activity | – | good activity | – | –
CCN(C)C=Nc1cc(C)c(OCc2cccc(Cl)c2)cc1C [Compound 7] | 2.13 | good activity | – | good activity | – | –
CCN(C)/C=N/c1cc(C)c(OCc2cccc(C(F)(F)F)c2)cc1C [Compound 9, N′-(2,5-dimethyl-4-{[3-(trifluoromethyl)benzyl]oxy}phenyl)-N-ethyl-N-methylimidoformamide] | – | good activity | – | – | 2.24 | 2.24
CCN(C)C=Nc1cc(C)c(OCc2ccc(Cl)c(Cl)c2)cc1C [Compound 13] | 2.38 | good activity | good activity | – | – | –
CCN(C)C=Nc1cc(C)c(OCc2ccc(C(F)(F)F)cc2)cc1C [Compound 14] | 2.28 | good activity | – | – | – | –
CCN(C)C=Nc1cc(C)c(OCc2ccc(Cl)cc2C(F)(F)F)cc1C [Compound 18] | 2.52 | good activity | good activity | – | – | –
CCN(C)C=Nc1cc(C)c(OC(C)c2ccccc2Cl)cc1C (stereo not drawn) [Compound 29] | 2.24 | good activity | good activity | – | – | –
